Source: article PMC7470102, “Synthesis, anticancer evaluation and molecular docking studies of new benzimidazole- 1,3,4-oxadiazole derivatives as human topoisomerase types I poison” (Journal of Enzyme Inhibition and Medicinal Chemistry, 2020)

What was measured:
[1] = test system: A549 (lung carcinoma cell line); experiment: MTT cytotoxicity assay, A549; assay type: cell-based; settings: Homo sapiens, A549, MTT assay, read-out: IC50 against A549
Description: (§1) The anticancer activity of compounds 5a–5o were screened according to the MTT assays. The MTT assays were performed as previously described[32]^,[33]. Anticancer activity of final compounds was assessed against five different cancer cell lines A549 (lung carcinoma cell line), HeLa (cervical cell line), MCF-7 (human breast adenocarcinoma cell line), HepG2 (human liver carcinoma cell line) and C6 (rat glioma cell line) cell lines as well as NIH3T3 (mouse embryo fibroblast cell line). Doxorubicin and Hoechst 33342 were used as the reference drugs in the MTT assays.
(§2) The benzimidazole-1,3,4-oxadiazole derivatives (5a-5o) were tested their cytotoxic effects in vitro using five cancer cell line A549 (lung carcinoma cell line), HeLa (cervical cell line), MCF-7 (human breast adenocarcinoma cell line), HepG2 (human liver carcinoma cell line) and C6 (rat glioma cell line) cell lines as well as NIH3T3 (mouse embryo fibroblast cell line). Doxorubicin and Hoechst 33342 were used for this study as a reference drugs.

[2] = test system: MCF-7 (human breast adenocarcinoma cell line); experiment: MTT cytotoxicity assay, MCF-7; assay type: cell-based; settings: Homo sapiens, MCF7, MCF-7 cell line, read-out: IC50 against MCF-7
Description: as §1, §2

[3] = test system: C6 (rat glioma cell line); experiment: MTT cytotoxicity assay, C6; assay type: cell-based; settings: Rattus norvegicus, read-out: IC50 against C6
Description: as §1, §2

[4] = test system: HepG2 (human liver carcinoma cell line); experiment: MTT cytotoxicity assay, HepG2; assay type: cell-based; settings: Homo sapiens, read-out: IC50 against HepG2
Description: as §1, §2

[5] = test system: HeLa (cervical cell line); experiment: MTT cytotoxicity assay, HeLa; assay type: cell-based; settings: Homo sapiens, read-out: IC50 against HeLa
Description: as §1, §2

[6] = test system: NIH3T3 (mouse embryo fibroblast cell line); experiment: MTT cytotoxicity assay, NIH3T3 healthy cells; assay type: cell-based; settings: Mus musculus, read-out: IC50 against NIH3T3
Description: The anticancer activity of compounds 5a–5o were screened according to the MTT assays. The MTT assays were performed as previously described[32]^,[33]. Anticancer activity of final compounds was assessed against five different cancer cell lines A549 (lung carcinoma cell line), HeLa (cervical cell line), MCF-7 (human breast adenocarcinoma cell line), HepG2 (human liver carcinoma cell line) and C6 (rat glioma cell line) cell lines as well as NIH3T3 (mouse embryo fibroblast cell line). Doxorubicin and Hoechst 33342 were used as the reference drugs in the MTT assays. It is crucial that an anticancer agent affects the cancer cell line but having minimal or no side-effect on healthy cells. For this purpose, the cytotoxic effects of the active compounds on the NIH3T3 cell line were investigated (Table 2).

[7] = test system: HepG2 cells; experiment: DNA synthesis inhibition assay (BrdU), HepG2; assay type: cell-based, human; settings: 5a at 5.695 µg/mL, doxorubicin at 16.482 µg/mL
Description: (§3) The BrdU cell proliferation method was performed to analyse the effects of the active compounds on proliferation of cancer cells. Cancer cells were seeded into the 96-well plates at a density of 1 × 10^4 cells. Compounds were added into the each well at three different concentrations (IC50/2, IC50 and 2xIC50) and the plates were incubated for 24 h. At the end of the incubation period, BrdU solution was added and cells were reincubated for 2 h at 37 °C. Anti-BrdU-POD ([…]) was added and the mixture was incubated for 90 min. Microplates were washed with PBS for three times. After adding substrate solution, the mixture was incubated for 15 min. OD of the wells were determined at 492 nm. Proliferation of control cells was assessed as 100% and growth inhibition % of cells, treated with test compounds and […] were calculated.
(§4) According to the MTT assay, compound 5n for A549 cell line; compounds 5a, 5d, 5e, 5o for MCF-7 cell line; compound 5k for C6 cell line; compound 5a for HepG2 cell line; compounds 5b, 5l and 5n for HeLa cell line were selected for the DNA synthesis inhibition assay. A549, C6, MCF-7, HepG2 and HeLa cells were incubated with three different concentrations (IC50/2, IC50, and […]) of the compounds for 24 and 48 h time periods. […] Doxorubicin was used as positive control.

[8] = test system: MCF-7 cell line; experiment: Flow cytometric analysis (Annexin V/PI), MCF-7; assay type: cell-based, human; settings: MCF-7 cells
Description: (§5) Death pathway of the carcinogenic cell lines was detected by Annexin V-FITC Apoptosis Detection Kit (BD, Pharmingen) as reported previously described. […] FCS Express software was used to display the percent of normal and apoptotic cells at different stages. […] The experiments were carried out in triplicates.
(§6) Annexin V/PI staining on tested cancer cells treated with the active compounds was performed to investigate induction of apoptosis. […] According to the MTT assay, compound 5n for A549 cell line; compounds 5a, 5d, 5e, 5o for MCF-7 cell line; compound 5k for C6 cell line; compound 5a for HepG2 cell line; compounds 5b, 5l and 5n for HeLa cell line were selected for the flow cytometric analysis. Furthermore, flow cytometry studies were performed for reference drug doxorubicin. Flow cytometric analysis diagrams of tested compounds and doxorubicin at IC50/2, IC50, and 2xIC50 concentrations on cancer cells were presented in Figures 7–11.

[9] = test system: HepG2 cell line; experiment: Flow cytometric analysis (Annexin V/PI), HepG2; assay type: cell-based, human; settings: at IC50 concentrations, 24 h incubation
Description: as §5, §6

[10] = biological target: T1, Topoisomerase I (Homo sapiens, UniProt P11387); experiment: DNA topoisomerase I assay (relaxation of supercoiled plasmid DNA, agarose gel); assay type: biochemical; settings: agarose gel electrophoresis, camptothecin positive control, Figure 12
T1 construct: purchased TopoGen TG1018-2
T1 sequence (P11387 1-765): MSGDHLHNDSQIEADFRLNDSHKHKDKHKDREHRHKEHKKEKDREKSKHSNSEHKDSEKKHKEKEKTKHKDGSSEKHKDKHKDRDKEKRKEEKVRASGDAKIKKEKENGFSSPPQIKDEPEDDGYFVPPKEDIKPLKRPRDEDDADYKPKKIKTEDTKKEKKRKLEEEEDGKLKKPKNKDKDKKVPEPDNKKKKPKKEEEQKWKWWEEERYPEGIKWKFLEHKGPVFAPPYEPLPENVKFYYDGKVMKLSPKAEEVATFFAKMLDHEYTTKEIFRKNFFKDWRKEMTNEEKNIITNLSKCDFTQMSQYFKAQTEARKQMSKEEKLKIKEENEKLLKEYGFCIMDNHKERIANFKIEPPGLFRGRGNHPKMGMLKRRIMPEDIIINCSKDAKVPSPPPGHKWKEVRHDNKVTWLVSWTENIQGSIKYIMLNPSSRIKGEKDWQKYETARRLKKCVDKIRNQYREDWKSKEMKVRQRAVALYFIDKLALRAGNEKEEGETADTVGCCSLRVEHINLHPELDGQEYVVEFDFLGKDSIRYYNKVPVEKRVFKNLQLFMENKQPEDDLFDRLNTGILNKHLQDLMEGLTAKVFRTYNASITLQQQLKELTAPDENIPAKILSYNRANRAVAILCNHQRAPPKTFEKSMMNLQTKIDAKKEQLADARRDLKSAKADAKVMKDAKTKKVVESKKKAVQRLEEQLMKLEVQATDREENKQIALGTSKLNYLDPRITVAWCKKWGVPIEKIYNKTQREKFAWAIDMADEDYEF
Description: The topoisomerase I inhibition activities of final compounds were measured as relaxation of supercoiled plasmid DNA using agarose gel electrophoresis and camptothecin was used as a positive control. The assay was carried out in a final volume of 20 µl reaction volume containing 2 µl of 10xTGS Buffer, 6 µl water, 2 µl supercoiled plasmid DNA, 2 µl test compound, 2 µl of Top1, 2 ul 10% SDS, 2 µl proteinase K, 2 µl DNA loading dye. After incubation of reaction mixtures at 37 °C for 30 min, electrophoresis was done on a 1% agarose gel at a potential 50 V for 75 min using 1xTAE buffer.
To determine whether the DNA intercalation properties of compounds 5a, 5b, 5d, 5e, 5k, 5l, 5n and 5o might result in Topo I inhibition, agarose gel electrophores is assay was performed to evaluate the Topo I inhibitory activity of them via agarose-gel electrophoresis and CPT was used as the positive control. The TopoGEN Topoisomerase I Drug Screening Kit were optimised and implemented to accomplish this goal.
In a previous studies, it was said that the compounds poisoning topoisomerase caused the formation of nick bands in such gel appearances, while the formation of Supercoiled bands was said to be caused by catalytic inhibitors that bound to either DNA or enzyme[40]^,[41].

[11] = test system: HeLa cells; experiment: DNA synthesis inhibition assay (BrdU), HeLa; assay type: cell-based; settings: 48 h, 5b 0.698, 5l 0.224, 5n 0.205, doxorubicin 14.280 µg/mL
Description: as §3, §4

[12] = test system: MCF7 cells; experiment: DNA synthesis inhibition assay (BrdU), MCF7; assay type: cell-based, human; settings: 48 h, 5e at 7.318 µg/mL, doxorubicin at 10.525 µg/mL
Description: as §3, §4

| Topo I inhibition activity [10] | Structure (SMILES) | IC50 [1] | IC50 [2] | IC50 [3] | IC50 [4] | IC50 [5] | IC50 [6] | % DNA synthesis inhibition ([7]; 24 h) | % DNA synthesis inhibition ([7]; 48 h) | percentage of apoptosis (early + late apoptotic cells) [8] | percentage of apoptotic cells [9] | % DNA synthesis inhibition [11] | % DNA synthesis inhibition [12] |
| --- | --- | --- | --- | --- | --- | --- | --- | --- | --- | --- | --- | --- | --- |
| potent topo I inhibition activity | CN1CCN(C(=O)CSc2nnc(-c3ccc4nc(-c5ccc(O)cc5)[nH]c4c3)o2)CC1 [5a, 2-((5–(2-(4-Hydroxyphenyl)-1H-benzo[d]imidazol-6-yl)-1,3,4-oxadiazol-2-yl)thio)-1–(4-methyl-piperazin-1-yl) -ethane-1-on] | 43.3 ± 1.79 µM | 5.7 ± 0.254 µM | 15.6 ± 0.615 µM | 5.7 ± 0.283 µM | 14 ± 0.65 µM | 39.1 ± 1.94 µM | 60.89% | 72.05% | 15.4% | 13.2% | – | – |
| potent topo I inhibition activity | CCN1CCN(C(=O)CSc2nnc(-c3ccc4nc(-c5ccc(O)cc5)[nH]c4c3)o2)CC1 [5b, 2-((5–(2-(4-Hydroxyphenyl)-1H-benzo[d]imidazol-6-yl)-1,3,4-oxadiazol-2-yl)thio)-1–(4-ethyl-piperazin-1-yl) -ethane-1-on] | ≥ 100 µM | ≥ 100 µM | ≥ 100 µM | ≥ 100 µM | 0.698 ± 0.032 µM | 944.4 ± 7.62 µM | – | – | – | – | 49.70% | – |
| potent topo I inhibition activity | O=C(CSc1nnc(-c2ccc3nc(-c4ccc(O)cc4)[nH]c3c2)o1)N1CCN(c2ncccn2)CC1 [5e, 2-((5–(2-(4-Hydroxyphenyl)-1H-benzo[d]imidazol-6-yl)-1,3,4-oxadiazol-2-yl)thio)-1-(4-(pyrimidine-2-yl)-piperazin-1-yl)-ethane-1-on] | – | 7.32 ± 0.352 µM | ≥ 100 µM | ≥ 100 µM | ≥ 100 µM | 54 ± 2.68 µM | – | – | 13.1% | – | – | 93.81% |
